Experimental data reported in patent US9783509B2, “Six-membered C-N-linked aryl sulfide derivatives and aryl sulfoxide derivatives as pest conrol agents” (BAYER CROPSCIENCE AKTIENGESELLSCHAFT, priority 2013, dated 2017).
Read-outs that look alike come from different tables or passages of the source.

What was measured:
[1] = system: engorged adult female cattle ticks (Boophilus microplus); experiment: Boophilus microplus injection test; format: in vivo; conditions: application rate 20 μg/animal, assessed after 7 days
Protocol: Boophilus microplus—Injection Test
Solvent: dimethyl sulphoxide
To produce an appropriate active ingredient formulation, 10 mg of active ingredient are mixed with 0.5 ml of solvent and the concentrate is diluted with solvent to the desired concentration.
1 μl of the active ingredient solution is injected into the abdomen of 5 engorged adult female cattle ticks (Boophilus microplus). The animals are transferred into dishes and kept in a climate-controlled room.
The efficacy is assessed after 7 days by laying of fertile eggs. Eggs which are not visibly fertile are stored in a climate-controlled cabinet until the larvae hatch after about 42 days. An efficacy of 100% means that none of the ticks has laid any fertile eggs; 0% means that all the eggs are fertile.

[2] = system: southern root-knot nematode (Meloidogyne incognita); experiment: Meloidogyne incognita test (sand, lettuce, acetone solvent, 14 days); format: in vivo; conditions: application rate 20 ppm, after 14 days; for pest or weed control at 20 ppm: Meloidogyne incognita, 336 h, read-out: nematicidal efficacy (formation of galls)
Protocol: Meloidogyne incognita Test
Solvent: 125.0 parts by weight of acetone
To produce an appropriate active ingredient formulation, 1 part by weight of active ingredient is mixed with the stated amount of solvent and the concentrate is diluted with water to the desired concentration.
Vessels are filled with sand, active ingredient solution, an egg/larvae suspension of the southern root-knot nematode (Meloidogyne incognita) and lettuce seeds. The lettuce seeds germinate and the plants develop. The galls develop on the roots
After 14 days, the nematicidal efficacy in % is determined by the formation of galls. 100% means that no galls were found; 0% means that the number of galls on the treated plants corresponds to the untreated control.

[3] = system: greenhouse red spider mite (Tetranychus urticae); experiment: Tetranychus urticae spray test, OP-resistant (bean leaf discs); format: in vivo; conditions: application rate 500 g/ha, after 6 days; for pest or weed control at 500 g/ha: Tetranychus urticae, foliar, 144 h, read-out: efficacy (spider mites killed)
Method in brief: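 Compound dissolved in acetone/DMF and diluted in water with 1000 ppm alkylaryl polyglycol ether emulsifier, then sprayed on bean leaf discs infested with all stages of OP-resistant T. urticae. Mortality in % scored after 6 days (100% = all mites killed).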

[4] = log P by reversed-phase HPLC analogously to OECD Guideline 117; format: physicochemical; conditions: for chromatographic logP: reversed-phase C18 HPLC column
Method in brief: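 Retention on reversed-phase C18 HPLC (LC-MS), acidic runs at pH 2.7 with formic acid or trifluoroacetic acid/acetonitrile gradients, neutral runs at pH 7.8 with 0.001 molar ammonium hydrogencarbonate/acetonitrile. log P obtained by linear interpolation of retention times against unbranched alkan-2-ones (C3–C16) of known log P.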

[5] = [a] acidic range, pH 2.7, formic acid (or trifluoroacetic acid)/acetonitrile
[6] = [b] neutral range, pH 7.8, ammonium hydrogencarbonate/acetonitrile
[7] = pH 2.7, running text, [a] acidic range, pH 2.7, read-out: log P[a]
[8] = pH 2.7, table column, [a] acidic range, pH 2.7, formic acid (or trifluoroacetic acid)/acetonitrile, read-out: LogP[a]

## CCn1c(=O)cnn(-c2cc([S+]([O-])CC(F)(F)F)c(C)cc2F)c1=O (racemic) [compound 21]
[1]
  efficacy (no fertile eggs laid): 100%
[2]
  nematicidal efficacy (formation of galls): 100%
[3]
  efficacy (spider mites killed): 100%
[4]; [5]
  LogP[a]: 2.24
[4]; [6]
  LogP[b]: 2.22

## Cc1cc(F)c(-n2ncc(=O)n(CC(C)C)c2=O)cc1[S+]([O-])CC(F)(F)F (racemic) [compound 22]
[1]
  efficacy (no fertile eggs laid): 100%
[2]
  nematicidal efficacy (formation of galls): 90%
[3]
  efficacy (spider mites killed): 100%
[4]; [5]
  LogP[a]: 2.92
[4]; [6]
  LogP[b]: 2.9

## Cc1cc(C)c([S+]([O-])CC(F)(F)F)cc1-n1ncc(=O)n(C)c1=O (racemic) [compound 4]
[1]
  efficacy (no fertile eggs laid): 100%
[3]
  efficacy (spider mites killed): 100%
[4]; [5]
  LogP[a]: 2.01

## Cc1cc(C)c([S+]([O-])CC(F)(F)F)cc1-n1ncc(=O)n(CC(F)(F)F)c1=O (racemic) [compound 6]
[1]
  efficacy (no fertile eggs laid): 100%
[3]
  efficacy (spider mites killed): 90%
[4]; [5]
  LogP[a]: 2.73

## Cc1cc(F)c(-n2ncc(=O)n(CC(F)(F)F)c2=O)cc1[S+]([O-])CC(F)(F)F (racemic) [compound 9]
[1]
  efficacy (no fertile eggs laid): 100%
[2]
  nematicidal efficacy (formation of galls): 100%
[3]
  efficacy (spider mites killed): 100%
[4]; [5]
  LogP[a]: 2.65

## Cc1cc(F)c(-n2ccc(=O)n(C)c2=O)cc1[S+]([O-])CC(F)(F)F (stereo not shown) [Ex. No. 54, 1-{2-Fluoro-4-methyl-5-[(2,2,2-trifluoroethyl)sulphinyl]phenyl}-3-methylpyrimidine-2,4(1H,3H)-dione]
[1]
  efficacy (no fertile eggs laid): 100%
[2]
  pest or weed control at 20 ppm: 100%
[3]
  pest or weed control at 500 g/ha: 100%
[4]; [7]
  chromatographic logP: 1.66
[4]; [8]
  chromatographic logP: 1.61
[4]; pH 7.8, running text, [b] neutral range, pH 7.8, read-out: log P[b]
  chromatographic logP: 1.61
[4]; pH 7.8, table column, [b] neutral range, pH 7.8, ammonium hydrogencarbonate/acetonitrile, read-out: LogP[b]
  chromatographic logP: 1.66

## Cc1cc(F)c(-n2ncc(=O)n(C)c2=O)cc1SCC(F)(F)F [Ex. No. 3, 2-{2-Fluoro-4-methyl-5-[(2,2,2-trifluoroethyl)sulphanyl]phenyl}-4-methyl-1,2,4-triazine-3,5(2H,4H)-dione]
[1]
  efficacy (no fertile eggs laid): 100%
[2]
  pest or weed control at 20 ppm: 90%
[3]
  pest or weed control at 500 g/ha: 100%
[4]; [7]
  chromatographic logP: 2.94
[4]; [8]
  chromatographic logP: 2.94

## CCn1c(=O)cnn(-c2cc(SCC(F)(F)F)c(C)cc2F)c1=O [compound 19]
[1]
  efficacy (no fertile eggs laid): 100%
[2]
  nematicidal efficacy (formation of galls): 90%
[3]
  efficacy (spider mites killed): 100%
[4]; [5]
  LogP[a]: 3.31
[4]; [6]
  LogP[b]: 3.27

## Cc1cc(F)c(-n2ncc(=O)n(CC(C)C)c2=O)cc1SCC(F)(F)F [compound 20]
[1]
  efficacy (no fertile eggs laid): 100%
[2]
  nematicidal efficacy (formation of galls): 90%
[3]
  efficacy (spider mites killed): 100%
[4]; [5]
  LogP[a]: 4.03
[4]; [6]
  LogP[b]: 4

## O=c1cnn(-c2cc([S+]([O-])CC(F)(F)F)c(Cl)cc2Cl)c(=O)n1CC(F)(F)F (racemic) [compound 11]
[1]
  efficacy (no fertile eggs laid): 100%
[2]
  nematicidal efficacy (formation of galls): 90%
[3]
  efficacy (spider mites killed): 100%
[4]; [5]
  LogP[a]: 3.21
